{"source": "patent US20070272777A1", "about": "(priority 2005, published 2007)", "key": {"[1]": {"excerpt": "FIG. 6B illustrates this method. […] The standard may be prepared by mixing specific amounts of Type C and Form II and determining the X-ray diffraction pattern. This method is also illustrated in FIGS. 6A and B which are used to calculate the ratio between the heights of the peaks in the known mixtures. […] A round aluminum sample holder with zero background was used. […] Running in spin/oscillate mode. All peak positions are reported with an error of ±0.2 degrees two theta."}, "[2]": {"conditions": "disclosed in WO 05/058835; cited from earlier work"}, "[3]": {"molecular_target": "T1, serotonin 5-HT2C receptor (Homo sapiens, UniProt P28335)", "T1 sequence (P28335 33-458)": "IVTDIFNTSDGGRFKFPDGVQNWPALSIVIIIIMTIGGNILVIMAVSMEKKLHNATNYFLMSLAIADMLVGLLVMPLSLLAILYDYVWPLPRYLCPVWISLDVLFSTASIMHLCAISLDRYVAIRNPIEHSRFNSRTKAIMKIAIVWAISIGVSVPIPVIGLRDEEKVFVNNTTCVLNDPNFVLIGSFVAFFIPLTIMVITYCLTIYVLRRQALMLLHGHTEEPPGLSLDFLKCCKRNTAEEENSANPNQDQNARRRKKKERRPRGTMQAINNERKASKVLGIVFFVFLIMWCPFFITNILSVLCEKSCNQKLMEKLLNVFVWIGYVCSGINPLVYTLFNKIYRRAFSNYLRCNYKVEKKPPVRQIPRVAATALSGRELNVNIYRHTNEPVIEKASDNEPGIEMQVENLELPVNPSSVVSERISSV", "conditions": "cited from earlier work"}, "[4]": {"molecular_target": "serotonin reuptake site (Homo sapiens, UniProt P31645)", "sequence (P31645 whole entry)": "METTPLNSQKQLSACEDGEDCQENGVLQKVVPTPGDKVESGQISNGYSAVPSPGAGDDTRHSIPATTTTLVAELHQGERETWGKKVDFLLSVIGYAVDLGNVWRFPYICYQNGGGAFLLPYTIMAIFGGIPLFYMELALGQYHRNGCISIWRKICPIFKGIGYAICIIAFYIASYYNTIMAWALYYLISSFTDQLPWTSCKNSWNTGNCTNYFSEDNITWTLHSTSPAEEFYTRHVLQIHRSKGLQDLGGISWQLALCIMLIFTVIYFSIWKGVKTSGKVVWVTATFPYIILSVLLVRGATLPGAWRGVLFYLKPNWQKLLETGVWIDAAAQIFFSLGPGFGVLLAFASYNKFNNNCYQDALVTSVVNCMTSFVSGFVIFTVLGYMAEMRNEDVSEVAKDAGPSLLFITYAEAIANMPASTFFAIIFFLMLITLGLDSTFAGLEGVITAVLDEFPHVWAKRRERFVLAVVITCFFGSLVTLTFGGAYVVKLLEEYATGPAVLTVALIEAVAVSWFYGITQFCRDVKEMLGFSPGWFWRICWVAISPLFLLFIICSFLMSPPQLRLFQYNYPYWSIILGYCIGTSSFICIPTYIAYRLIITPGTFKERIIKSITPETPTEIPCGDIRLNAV", "conditions": "cited from earlier work"}, "[5]": {"molecular_target": "histamine H1 receptor (Homo sapiens, UniProt P35367)", "sequence (P35367 whole entry)": "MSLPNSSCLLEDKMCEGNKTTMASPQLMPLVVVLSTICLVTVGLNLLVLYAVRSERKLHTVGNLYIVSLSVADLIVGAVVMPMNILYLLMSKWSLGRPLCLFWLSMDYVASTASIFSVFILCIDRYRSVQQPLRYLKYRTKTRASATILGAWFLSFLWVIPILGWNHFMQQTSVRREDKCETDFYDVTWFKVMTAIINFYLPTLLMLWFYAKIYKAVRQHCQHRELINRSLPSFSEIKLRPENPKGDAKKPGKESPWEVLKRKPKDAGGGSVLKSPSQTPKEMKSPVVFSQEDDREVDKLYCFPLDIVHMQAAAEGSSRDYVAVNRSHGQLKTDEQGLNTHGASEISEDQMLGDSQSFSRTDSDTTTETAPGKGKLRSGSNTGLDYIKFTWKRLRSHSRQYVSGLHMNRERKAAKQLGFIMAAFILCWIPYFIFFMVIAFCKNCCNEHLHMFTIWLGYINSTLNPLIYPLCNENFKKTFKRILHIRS", "conditions": "cited from earlier work"}, "[6]": {"tested_on": "cholinergic muscarinic receptors", "conditions": "cited from earlier work"}, "[7]": {"molecular_target": "T2, serotonin 5-HT1A receptor (Homo sapiens, UniProt P08908)", "T2 sequence (P08908 1-422)": "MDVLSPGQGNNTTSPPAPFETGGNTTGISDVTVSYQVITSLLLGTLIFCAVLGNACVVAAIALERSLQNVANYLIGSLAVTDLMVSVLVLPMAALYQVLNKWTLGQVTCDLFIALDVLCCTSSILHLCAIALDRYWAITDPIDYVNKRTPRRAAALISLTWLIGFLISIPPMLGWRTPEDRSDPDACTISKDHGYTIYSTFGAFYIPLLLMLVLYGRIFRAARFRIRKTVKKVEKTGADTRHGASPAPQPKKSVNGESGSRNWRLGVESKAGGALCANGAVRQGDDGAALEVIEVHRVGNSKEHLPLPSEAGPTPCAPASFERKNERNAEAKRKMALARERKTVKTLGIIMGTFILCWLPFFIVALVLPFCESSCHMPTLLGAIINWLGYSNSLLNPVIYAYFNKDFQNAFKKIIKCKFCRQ", "conditions": "cited from earlier work"}, "[8]": {"molecular_target": "serotonin 5-HT2A receptor (Homo sapiens, UniProt P28223)", "sequence (P28223 whole entry)": "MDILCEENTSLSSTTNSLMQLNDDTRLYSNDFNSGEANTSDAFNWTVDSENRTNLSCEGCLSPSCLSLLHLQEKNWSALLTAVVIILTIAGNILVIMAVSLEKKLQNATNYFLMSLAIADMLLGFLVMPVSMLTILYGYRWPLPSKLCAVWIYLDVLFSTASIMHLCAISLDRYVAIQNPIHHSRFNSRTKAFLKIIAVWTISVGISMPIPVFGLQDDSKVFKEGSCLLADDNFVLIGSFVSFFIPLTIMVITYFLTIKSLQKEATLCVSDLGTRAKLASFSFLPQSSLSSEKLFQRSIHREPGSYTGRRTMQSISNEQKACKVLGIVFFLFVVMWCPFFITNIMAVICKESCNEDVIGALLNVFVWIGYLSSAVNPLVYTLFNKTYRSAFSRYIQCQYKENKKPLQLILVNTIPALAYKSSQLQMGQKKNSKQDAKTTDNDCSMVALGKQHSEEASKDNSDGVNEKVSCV", "conditions": "cited from earlier work"}, "[9]": {"tested_on": "α1-adrenergic receptor", "conditions": "cited from earlier work"}, "[10]": {"conditions": "prepared by recrystallization from ethanol or heating hydrate at 80° C; according to WO 03/26659; cited from earlier work"}, "[11]": {"conditions": "Example 5 (comparative): centrifugal ball mill, 90 minutes at 580 rpm"}}, "note": "Read-outs that look alike come from different tables or passages of the source."}
{"molecule": "O=C1CCc2ccc(OCCCCN3CCN(c4cccc(Cl)c4Cl)CC3)cc2N1", "note": "[Aripiprazole Form II, 7-{4-[4-(2,3-dichlorophenyl)-1-piperazinyl]-butoxy}-3,4-dihydro-2(1H)-quinolinone]", "values": [{"measurement": "Type C content of milled sample by XRD", "setting": "[1]; Example 1A: conical mill, 470 micron screen, 4710 rpm", "result": "less than 5%"}, {"measurement": "Type C content of milled sample by XRD", "setting": "[1]; Example 1B: conical mill, 830 microns screen, 1315 rpm", "result": "less than 5 % by weight"}, {"measurement": "Type C content of milled sample by XRD", "setting": "[1]; Example 2: ground with mortar and pestle about 1 min", "result": "less than 5%"}, {"measurement": "Type C content of milled sample by XRD", "setting": "[1]; Example 3A: micronizer, Feeding Air 5.0 bars, Grinding Air 4.0 bars", "result": "did not contain Type_C"}, {"measurement": "Type C content of milled sample by XRD", "setting": "[1]; Example 3B: micronizer, Feeding Air 3.0 bars, Grinding Air 2.0 bars", "result": "did not contain Type_C"}, {"measurement": "Type C content of milled sample by XRD", "setting": "[1]; Example 3C: micronizer, 4 kg, Feeding Air 6.0 bars, Grinding Air 5.0 bars", "result": "did not contain Type_C"}, {"measurement": "transformation to Type C by XRD", "setting": "[1]; Example 4A and 4B: frozen at −10° C. to −20° C. 24 hours, conical mill 470 microns/4710 or 830 microns/1315 rpm", "result": "not transformed to Type C"}, {"measurement": "Type C content after milling by XRD", "setting": "[1]; [11]", "result": "stark increase in the content of Type C"}, {"measurement": "crystallinity after milling by XRD", "setting": "[1]; [11]", "result": "crystallinity of the sample decreased"}, {"measurement": "polymorphic transformation on heating", "setting": "[2]", "result": "transformation to Type C"}]}
{"molecule": "O=C1CCc2ccc(OCCCCN3CCN(c4cccc(Cl)c4Cl)CC3)cc2N1", "note": "[Aripiprazole, 7-{4-[4-(2,3-dichlorophenyl)-1-piperazinyl]-butoxy}-3,4-dihydro-2(1H)-quinolinone]", "values": [{"measurement": "affinity for serotonin 5-HT2C receptor", "setting": "[3]", "result": "moderate affinity"}, {"measurement": "affinity for the serotonin reuptake site", "setting": "[4]", "result": "moderate affinity"}, {"measurement": "affinity for histamine H1 receptor", "setting": "[5]", "result": "moderate affinity"}, {"measurement": "affinity for cholinergic muscarinic receptors", "setting": "[6]", "result": "no appreciable affinity"}, {"measurement": "affinity for serotonin 5-HT1A receptor", "setting": "[7]", "result": "high affinity"}, {"measurement": "affinity for serotonin 5-HT2A receptor", "setting": "[8]", "result": "high affinity"}, {"measurement": "affinity for α1-adrenergic receptor", "setting": "[9]", "result": "moderate affinity"}]}
{"molecule": "O=C1CCc2ccc(OCCCCN3CCN(c4cccc(Cl)c4Cl)CC3)cc2N1", "note": "[anhydride aripiprazole]", "values": [{"measurement": "hygroscopicity", "setting": "[10]", "result": "significantly hygroscopic"}]}
